Experimental findings from patent US10550111B2, “Pyrimidine urea compound containing isoxazolines and use thereof” (SHENYANG SINOCHEM AGROCHEMICALS R&D CO., LTD, priority 2014, dated 2020) are described below.

Molecules are shown by their SMILES.

Assay type in all cases: in vivo
Assay [1] relates to broad-leaf weeds and grass weeds. Description: General screening of herbicidal activity in greenhouse.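 Note: 0 means no visible effect and 100 means all weeds dead or not emerged.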 The note with it: 1000 g a.i./hm^2. How it is done:
(§1) Determination of herbicidal activity of compounds of the present invention against weeds was carried out by the following procedures:
(§2) Seeds of monocotyledonous and dicotyledonous weeds were sown in nutrition soil in paper pot (7 cm diameter), covered with soil in 1 cm and grown in the greenhouse under good growth conditions (temperature, atmospheric humidity, water supply). The compounds of the present invention as emulsifiable concentrate, were applied in pre-emergence and post-emergence treatment by track sprayer (Engineer Research Ltd., pressure 1.95 kg/cm^2, volume 500 L/hm^2, track speed 1.48 km/h). Pre-emergence treatment was conducted after seeding 24 hours and post-emergence treatment was done when the respective weeds reached predetermined leaf stage (grass weed 2- to 3-leaf stage, broad-leaf weed 2- to 4-leaf stage), the state of growth of the respective weeds were visually observed to determine the growth inhibition rate (%) in accordance with the following evaluation standard.
(§3) Growth inhibition rate (%): 0=no discernible action: 100=all weeds dead or not emerged.

In assay [2] the test system is Abutilon theophrasti Medic. Put plainly: Bioassay of herbicidal activity in greenhouse (further screening). The conditions noted are these: post-emergence. How it is done: as §1, §2, §3
Another assay has as its system Zinnia elegans Jacq. Described as above. The conditions noted are these: post-emergence. How it is done:
as §1, §2, §3

Assay [3] concerns Echinochloa crus-galli (L.) Beauv. The description is as above. The conditions noted are these: post-emergence. How it is done: as §1, §2, §3
Assay [4] concerns Setaria glauca (L.) Beauv. The description is as above. The note with it: post-emergence. Here is the method: as §1, §2, §3

As for `CCOCCOC(=O)C1(C)CC(c2cc(-n3c(=O)cc(C(F)(F)F)n(C)c3=O)c(F)cc2Cl)=NO1` (stereo not drawn) [Compound 15], the “pre-emergence and post-emergence herbicidal activity against broad-leaf weeds and grass weeds” value in assay [1] is listed as “good”. The “Growth inhibition rate, Post-emergence treatment, Abutilon theophrasti Medic.” value in assay [2] (dose 7.5 g a.i./hm^2) came out at 65%; in assay [2] (dose 15 g a.i./hm^2), 100%; in assay [2] (dose 30.0 g a.i./hm^2), 100%; in assay [2] (dose 60.0 g a.i./hm^2) it was 100%; in assay [2] (dose 120.0 g a.i./hm^2) it was 100%. In addition, the “Growth inhibition rate, Post-emergence treatment, Zinnia elegans Jacq.” value in the assay with Zinnia elegans Jacq. (dose 7.5 g a.i./hm^2), with Zinnia elegans Jacq. (dose 15 g a.i./hm^2), with Zinnia elegans Jacq. (dose 30.0 g a.i./hm^2), in the assay with Zinnia elegans Jacq. (dose 60.0 g a.i./hm^2) and with Zinnia elegans Jacq. (dose 120.0 g a.i./hm^2) was 100% each time. The “Growth inhibition rate, Post-emergence treatment, Echinochloa crus-galli (L.) Beauv.” value in assay [3] (dose 7.5 g a.i./hm^2) is recorded as 70%; in assay [3] (dose 15 g a.i./hm^2), 85%; in assay [3] (dose 30.0 g a.i./hm^2), 100%; in assay [3] (dose 60.0 g a.i./hm^2), 100%; in assay [3] (dose 120.0 g a.i./hm^2) it was 100%. Further, the “Growth inhibition rate, Post-emergence treatment, Setaria glauca (L.) Beauv.” value in assay [4] (dose 7.5 g a.i./hm^2) came to 75%; in assay [4] (dose 15 g a.i./hm^2) it was 98%; in assay [4] (dose 30.0 g a.i./hm^2), 100%; in assay [4] (dose 60.0 g a.i./hm^2) it was 100%; in assay [4] (dose 120.0 g a.i./hm^2), 100%.

`COCCOC(=O)C1(C)CC(c2cc(-n3c(=O)cc(C(F)(F)F)n(C)c3=O)c(F)cc2Cl)=NO1` (stereo not drawn) [Compound 16]: the “pre-emergence and post-emergence herbicidal activity against broad-leaf weeds and grass weeds” value in assay [1] was “good”. In addition, the “Growth inhibition rate, Post-emergence treatment, Abutilon theophrasti Medic.” value in assay [2] (dose 7.5 g a.i./hm^2) is 75%; in assay [2] (dose 15 g a.i./hm^2), 98%; in assay [2] (dose 30.0 g a.i./hm^2), 100%; in assay [2] (dose 60.0 g a.i./hm^2), 100%; in assay [2] (dose 120.0 g a.i./hm^2), 100%. Besides, the “Growth inhibition rate, Post-emergence treatment, Zinnia elegans Jacq.” value is 98% in the assay on Zinnia elegans Jacq. (dose 7.5 g a.i./hm^2); 100% in the assay on Zinnia elegans Jacq. (dose 15 g a.i./hm^2); 100% with Zinnia elegans Jacq. (dose 30.0 g a.i./hm^2); 100% in the assay with Zinnia elegans Jacq. (dose 60.0 g a.i./hm^2); 100% with Zinnia elegans Jacq. (dose 120.0 g a.i./hm^2). Also, the “Growth inhibition rate, Post-emergence treatment, Echinochloa crus-galli (L.) Beauv.” value was found to be 50% in assay [3] (dose 7.5 g a.i./hm^2); 80% in assay [3] (dose 15 g a.i./hm^2); 100% in assay [3] (dose 30.0 g a.i./hm^2); 100% in assay [3] (dose 60.0 g a.i./hm^2); 100% in assay [3] (dose 120.0 g a.i./hm^2). In addition, the “Growth inhibition rate, Post-emergence treatment, Setaria glauca (L.) Beauv.” value in assay [4] (dose 7.5 g a.i./hm^2) worked out at 75%; in assay [4] (dose 15 g a.i./hm^2) it was 98%; in assay [4] (dose 30.0 g a.i./hm^2), 100%; in assay [4] (dose 60.0 g a.i./hm^2) it was 100%; in assay [4] (dose 120.0 g a.i./hm^2), 100%.
